pIC50: −log10 of the molar value. Where two headings read alike, the source gives them in different places.
Tests used:
[1] = Pharmacokinetic study, romidepsin in plasma; settings: mouse, in vivo, 2.5 mg/kg
Procedure: Each treatment cohort was further divided into two sub-cohorts depending upon the route of administration (IP or IV). […] Mice were sacrificed (n=3 per time point) at 1, 3, 6, 18, 24, 48, and 72 hours after the treatment. Blood (˜1 mL) was collected via terminal cardiac puncture under CO2 anesthesia and collected in EDTA-coated K3EDTA tubes followed by centrifugation (2000×g for 15 min) to isolate plasma. Plasma was placed in cryopreservation vials and preserved by snap freezing using liquid nitrogen. Blood from three untreated mice was collected at the beginning of the treatment (T=0) and used as a control.
For efficacy study: 5- to 7-week-old female NOD.Cg-Prkdcscid Il2rgtm1Wjl/SzJ mice (The Jackson Laboratory). were injected with 3 million a fluorescent protein, Chili (dTomato-absorption max and emission max at 554 nm and 581 nm respectively)—and a bioluminescence generating protein, firefly luciferase (Luc) expressing H9 cells subcutaneously in the flank. In vivo BLI analysis was conducted on a cryogenically cooled Lago X (Spectral Instruments Imaging system). Mice were imaged twice a week starting 4 days after inoculation of cells. […] Baseline imaging data were recorded for all mice on day 1 (start of drug administration) and on each day of drug administration before the treatment. The numbers of animals, study design, and treatment of animals were reviewed, and approved by the Institutional Animal Care and Use Committee (IACUC) of the University of Virginia, Charlottesville, Virginia, United States of America.

BALB/c mice = assay: Repeated dose toxicity study; assay type: in vivo
Excerpt: FIGS. 14A and 14B. […] Depicted are the percentage of body weight changes as a percentage of starting weights with SEM (FIG. 14A; n=5 mice/group) and clinical score with SEM (FIG. 14B; n=5 mice/group).
In vivo studies. For single dose toxicity study, five to seven-week old female BALB/c mice were chosen for the MTD study. Animals were randomly assigned to dose groups based on body weight. […] Mice were divided into two cohorts for Nano-romidepsin (NanoRomi) and free romidepsin. Each cohort was divided into sub-cohorts. Each sub cohort (n=5) received a single treatment of following doses: 1, 2, 3, 5, and 8 mg/kg body weight by intreaperitoneal (IP) and intravenous (IV) route of administration. NanoRomi was diluted under sterile conditions in phosphate buffered saline (PBS). Romidepsin was prepared in DMSO and then diluted with PBS under sterile condition. […] The mice were monitored for 7 days after the last treatment. For single dose and repeated dose toxicity study, we used two endpoints: weight loss and clinical score. Clinical signs were scored by observing activity, appearance (hair coat and eyes/nose), posture, and body condition with a maximum of 3 points going to each (0, normal; 1 slight deviation from normal; 2, moderate deviation from normal, 3, severe deviation from normal). Euthanasia criteria included weight loss either >20% weight loss or reached a clinical score >6.

[2] = test system: PBMCs from healthy donors; assay: Cell viability of normal cells (CELL TITER GLO); assay type: cell-based, human; settings: for IC50 / pIC50: Homo sapiens, PBMC; for pIC50: 72 hrs (sentence prints 'At 60 hrs' for NanoRomidepsin PDLLA)
TL-1 (LGL leukemia) = assay: Cell viability assay ([…]-GLO); assay type: cell-based; settings: Homo sapiens, 60 h, read-out: IC50 in nM at 60 Hours
Excerpt: (§1) Cell lines. The T cell lymphoma cell lines HH and H9 (both Cutaneous T Cell Lymphomas; CTCL), SUP-T1 (T Cell Lymphoblastic Lymphoma) and FEPD and SUP-M2 (ALK-negative anaplastic large cell lymphoma; ALCL), were obtained from ATCC. NKL (Natural killer cell lymphoblastic leukemia/lymphoma) cell lines (Robertson et al., 1996) were also employed. The cutaneous melanoma cell line FM3-29 was obtained from DSMZ. The Large Granular Lymphocyte (LGL) leukemia cell line TL-1 was generated in the Loughran lab. All cells were grown at 37° C. and 5% CO2 in a humidified incubator. Cell lines were authenticated by short tandem repeat DNA profiling (Genetica DNA laboratories) and tested for mycoplasma contamination routinely using the MycoAlert PLUS detection kit (Lonza #LT07-710). Experiments were performed within 6 weeks of thawing. HH, H9, SUP-T1, FEPD and FM3-29 cells were cultured in RPMI-1640 (Corning, Glendale, AZ) with 10% FBS (Thermofisher Scientific, Waltham, MA). SUP-M2 cells were cultured in RPMI-1640 with 20% FBS. TL-1 cells were cultured in RPMI-1640 with 10% FBS and supplemented with 200 U/ml IL-2 (Miltenyi Biotec cat #130-097-743). NKL cells were cultured in RPMI-1640 with 10% FBS and supplemented with 100 U/ml IL-2.
(§2) Cell Viability Assay. For cell viability, cell lines were plated at the appropriate cell densities (SUP-T1, HH, NKL and TL-1 at 100,000 cells/ml/well and H9, FEPD SUP-M2 and FM3-29 at 50,000 cells/ml/well) in a 48-well plate. […] Cells were harvested after 24, 60, and 96 hours of incubation at 37° C., 5% CO2 and assayed for cell viability, using […]-GLO® (Promega) luminescence reagent, by quantifying the amount of ATP present. After 15 minutes of adding […]-GLO® reagent at a 1:1 ratio, luminescence was read on a GLOMAX® Discover Microplate Reader (Promega). Luminescence was normalized to untreated control, which was defined as 100% viability.

[3] = test system: FM3-29 (cutaneous melanoma); assay: Cell viability assay ([…]-GLO); assay type: cell-based; settings: Homo sapiens, 60 h, read-out: IC50 in nM at 60 Hours
Excerpt: as §1, §2

H9 (CTCL) = assay: Cell viability assay ([…]-GLO); assay type: cell-based; settings: Homo sapiens, 60 h, read-out: IC50 in nM at 60 Hours
Excerpt: as §1, §2

PTCL = settings: cited from earlier work; for Outcomes: ORR / Outcomes: CR / Outcomes: DOR: patients with PTCL; for response, share of patients: R/R PTCL
[4] = single agent, pivotal trial cited per drug (romidepsin: trial (6))

Compound: C/C=C1\NC(=O)[C@H]2CSSCC/C=C/[C@H](CC(=O)N[C@H](C(C)C)C(=O)N2)OC(=O)[C@H](C(C)C)NC1=O [Romidepsin, (1S,4S,7Z,10S,16E,21R)-7-Ethylidene-4,21-diisopropyl-2-oxa-12,13-dithia-5,8,20,23-tetrazabicyclo[8.7.6]tricos-16-ene-3,6,9,19,22-pentone]
- AUC(0-inf) ([1]; ip): 1930 ng·h/mL
- AUC(0-t) ([1]; ip): 1920 ng·h/mL
- Cmax ([1]; ip): 120 ng/mL
- MRT inf ([1]; ip): 12.8 h
- Tmax ([1]; ip): 6 h
- Vd/F ([1]; ip): 20 L/kg
- half-life ([1]; ip): 590 min
- AUC(0-inf) ([1]; iv): 108 ng·h/mL
- AUC(0-t) ([1]; iv): 99.3 ng·h/mL
- Cmax ([1]; iv): 21.3 ng/mL
- MRT inf ([1]; iv): 5.53 h
- Tmax ([1]; iv): 1 h
- half-life ([1]; iv): 313 min
- body weight change (BALB/c mice; 3 mg/kg IP on days 1, 4, 8 and 11): severe body weight loss
- deaths during the experimental period (BALB/c mice; 2 and 3 mg/kg IP on days 1, 4, 8 and 11): 1 mouse
- times PBMCs from healthy donors more sensitive than the cancer cells ([2]; 72 hrs PBMCs vs cancer cells): 1.5 ×
- IC50 ([2]; 24 h, read-out: IC50 in nM, PBMC Donor 1, 24 hrs): 0.02 nM
- IC50 ([2]; 24 h, read-out: IC50 in nM, PBMC Donor 2, 24 hrs): > 50 nM
- IC50 ([2]; 24 h, read-out: IC50 in nM, PBMC Donor 3, 24 hrs): > 50 nM
- IC50 ([2]; 48 h, read-out: IC50 in nM, PBMC Donor 1, 48 hrs): 0.01 nM
- IC50 ([2]; 48 h, read-out: IC50 in nM, PBMC Donor 2, 48 hrs): 0.01 nM
- IC50 ([2]; 48 h, read-out: IC50 in nM, PBMC Donor 3, 48 hrs): > 50 nM
- IC50 ([2]; 72 h, read-out: IC50 in nM, PBMC Donor 1, 72 hrs): 0.04 nM
- IC50 ([2]; 72 h, read-out: IC50 in nM, PBMC Donor 2, 72 hrs): 0.07 nM
- IC50 ([2]; 72 h, read-out: IC50 in nM, PBMC Donor 3, 72 hrs): 2.48 nM
- pIC50 ([2]; read-out: Avg. IC50 across the PBMCs from healthy donors, 3 donors): 9.10
- pIC50 ([2]; read-out: IC50 range across the PBMCs from healthy donors, 3 donors): 8.60 to 10.40
- IC50 (TL-1 (LGL leukemia)): 0.7 nM
- IC50 [3]: 0.6 nM
- IC50 (H9 (CTCL)): 1.4 nM
- Outcomes: ORR (PTCL; single agent, pivotal trial cited per drug (romidepsin: trial (6) Coiffier et al., 2014)): 25%
- Outcomes: CR (PTCL; [4]): 15%
- Outcomes: DOR (PTCL; [4]): 28 months
- Outcomes: CR (PTCL; trial (7) Piekarz et al., 2011): 18%
- Outcomes: DOR (PTCL; trial (7) Piekarz et al., 2011): 8.9 months
- Outcomes: ORR (PTCL; trial (7) Piekarz et al., 2011): 38%
- response, share of patients (PTCL; single agent): 25%
- response, share of patients (PTCL; single agent, listed as romidepsin): about 25%
